Assay [1] deals with Plasmodium falciparum 3D7 (drug sensitive) strain. The assay can be described thus: Growth inhibition of P. falciparum 3D7 in erythrocytic co-culture. The assay is classed as cell-based. As to conditions: 3D7, read-out: EC50 3D7.
Assay [2] has as its system Plasmodium falciparum K1 (drug resistant) strain. The assay can be described thus: Growth inhibition of P. falciparum K1 in erythrocytic co-culture. As to conditions: K1, read-out: EC50 K1. The class given is cell-based.

By EC50 is commonly meant the concentration that produces a half-maximal response.

Regarding `O=C(CCc1ccccc1)c1ccccc1OCC(O)CN1CCN(C(c2ccccc2)c2ccccc2)CC1` (centres unmarked) [Compound 6z], the concentration giving a half-maximal response (EC50) in assay [1] and in assay [2] was ≤ 100 nM in each case.

The values are drawn from article PMC3208124 (Journal of medicinal chemistry, 2011).
